Measurements: US10023562B2, “Heteroaryl substituted pyridyl compounds useful as kinase modulators” (BRISTOL-MYERS SQUIBB COMPANY, priority 2012, dated 2018)

Test system: TLR2 induced IL-6 in peripheral blood mononuclear cells (PBMCs)
Experiment: PBMC TLR2 Induced IL-6 Assay
Type: cell-based
Details: Homo sapiens, PBMC, 5 h, 10 μg/ml lipoteichoic acid for 5 hours, IL-6 by ELISA, values marked * are EC50, read-out: Cell EC50 (values marked *)
Protocol: PBMC TLR2 Induced IL-6 Assay Peripheral blood mononuclear cells (PBMCs) were isolated from human blood containing the anti-coagulant EDTA (2.5 mM) by centrifugation over a FICOLL® gradient. […] At the end of the culture, plates were centrifuged at 1800 rpm for 10 minutes to pellet the cells. Supernatants were harvested and analyzed for IL-6 levels by ELISA (BD Biosciences, San Jose, Calif.).

Point of comparison: `CC(C)CCNc1cc(Nc2ncc(C#N)cc2F)ncc1C(=O)NC[C@@H](F)C(C)(C)O` [Example 141], EC50 412 nM. Against it:
- CC(C)(O)[C@H](F)CNC(=O)c1cnc(Nc2ncc(C#N)cc2Cl)cc1NC1CCCC1O (stereo partly drawn) [Example 76] — 3.9-fold lower, 107 nM
- CC(C)Nc1cc(Nc2ncc(C#N)c(NC(C)C)n2)ncc1C(=O)NC[C@@H](F)C(C)(C)O [Example 40] — 2.6-fold lower, 161 nM
- CC(C)Nc1cc(Nc2ncc(C#N)cc2F)ncc1C(=O)NCCc1ccc(S(N)(=O)=O)cc1 [Example 121] — 8.4-fold lower, 49 nM
- CC(C)(O)[C@H](F)CNC(=O)c1cnc(Nc2nc(OC3CCNCC3)ncc2Cl)cc1NC1CC1 [Example 42] — within 1.5-fold, 329 nM
- CC(C)(O)[C@H](F)CNC(=O)c1cnc(Nc2ncncc2F)cc1NC1CC1 [Example 94] — within 1.5-fold, 391 nM
- CCCNc1cc(Nc2ncc(C#N)cc2F)ncc1C(=O)NC[C@@H](F)C(C)(C)O [Example 139] — 3.6-fold lower, 114 nM
- COC[C@H](F)CNC(=O)c1cnc(Nc2ncc(C#N)cc2F)cc1NC(C)C [Example 35, (R)-6-((5-cyano-3-fluoropyridin-2-yl)amino)-N-(2-fluoro-3-methoxypropyl)-4-(isopropylamino)nicotinamide] — within 1.5-fold, 350 nM
- CC(C)Nc1cc(Nc2ncc(C#N)cc2F)ncc1C(=O)NC1CCC(O)(c2ccnn2C)CC1 (stereo not drawn) [Example 166] — 2-fold lower, 202 nM
- CC(C)(O)[C@H](F)CNC(=O)c1cnc(Nc2ncc(F)cc2F)cc1NC1CC1 [Example 89] — within 1.5-fold, 491 nM
- CC(=O)N[C@H]1CC[C@H](NC(=O)c2cnc(Nc3ncc(C#N)cc3F)cc2NC2CC2)CC1 [Example 83] — 1.9-fold higher, 771 nM
- COC(=O)N[C@H]1CC[C@H](NC(=O)c2cnc(Nc3ncc(C#N)cc3F)cc2NC(C)C)CC1 [Example 165] — within 1.5-fold, 279 nM
- CC(C)(O)[C@H](F)CNC(=O)c1cnc(Nc2ncc(C#N)cc2Cl)cc1Nc1cccc(C(N)=O)c1 [Example 143] — 3.3-fold lower, 126 nM
- C[C@H](CO)Nc1cc(Nc2ncc(F)cc2F)ncc1C(=O)NC[C@@H](F)C(C)(C)O [Example 100] — within 1.5-fold, 308 nM
- CC(C)(O)c1cnc(Nc2cc(Nc3ncc(C#N)cc3Cl)ncc2C(=O)NC[C@@H](F)C(C)(C)O)s1 [Example 75] — 7.6-fold lower, 54 nM
- CCCNc1cc(Nc2ncc(C#N)cc2Cl)ncc1C(=O)NC[C@@H](F)C(C)(C)O [Example 138] — 3.8-fold lower, 108 nM
- Cn1nnnc1-c1cccc(Nc2cc(Nc3ncc(C#N)cc3Cl)ncc2C(=O)NC[C@@H](F)C(C)(C)O)c1 [Example 146] — within 1.5-fold, 509 nM
- CC(Nc1cc(Nc2ncc(C#N)cn2)ncc1C(=O)NC[C@@H](F)C(C)(C)O)C1CC1 (stereo partly drawn) [Example 163] — within 1.5-fold, 459 nM
- CC(C)(O)[C@H](F)CNC(=O)c1cnc(Nc2ncc(C#N)cc2Cl)cc1N[C@H]1CC[C@@](C)(O)CC1 [Example 152] — 1.6-fold lower, 260 nM

Same assay, conditions: Homo sapiens, PBMC, 5 h, 10 μg/ml lipoteichoic acid for 5 hours, IL-6 by ELISA, values without asterisk, read-out: Cell IC50

Point of comparison: `CNC(=O)[C@H]1CC[C@H](NC(=O)c2cnc(Nc3ncc(C#N)cc3F)cc2NC(C)C)CC1` [Example 18, 6-((5-cyano-3-fluoropyridin-2-yl)amino)-4-(isopropylamino)-N-((1r,4r)-4-(methylcarbamoyl)cyclohexyl)nicotinamide], IC50 137 nM. Against it:
- CNC(=O)c1cnc(Nc2ccc(C#N)cn2)cc1N[C@@H](c1ccccc1)[C@H](O)CO [Example 1, 6-((5-cyano-2-pyridinyl)amino)-4-(((1S,2S)-2,3-dihydroxy-1-phenylpropyl)amino)-N-methylnicotinamide] — 4-fold higher, 550 nM
- CC(=O)N[C@H](C)CCNC(=O)c1cnc(Nc2ncc(C#N)cc2Cl)cc1NC(C)C [Example 28, (R)—N-(3-acetamidobutyl)-6-((3-chloro-5-cyanopyridin-2-yl)amino)-4-(isopropylamino)nicotinamide] — 2-fold higher, 270 nM
- CNC(=O)[C@H]1CC[C@H](NC(=O)c2cnc(Nc3ncc(C#N)cc3Cl)cc2NC(C)C)CC1 [Example 16, 6-((3-chloro-5-cyanopyridin-2-yl)amino)-4-(isopropylamino)-N—((1r,4r)-4-(methylcarbamoyl)cyclohexyl)nicotinamide] — 1.5-fold higher, 212 nM
- CC(C)(O)[C@H](F)CNC(=O)c1cnc(Nc2ncc(C#N)cc2F)cc1NC1CCOCC1 [Example 49] — within 1.5-fold, 164 nM
